Measurements: paper PMC5715147, “Albumin/vaccine nanocomplexes that assemble in vivo for combination cancer immunotherapy” (Nature Communications, 2017)

Columns and labels:
[1] = rhesus monkey, in vivo; cited from earlier work
Description: Here we took a clinically oriented perspective to develop AlbiVax by first repurposing a clinically practiced EB that binds to albumin at binding site I[33], and then conjugating molecular vaccines with an EB derivative. The resulting albumin/AlbiVax nanocomplexes that assemble in vivo were efficiently delivered to LNs and induced potent and durable anti-cancer immunity. EB and derivatives have been developed for preclinical and clinical LN identification[34]–[39]. They have excellent clinical safety profiles[36],[39], and rhesus monkeys survived 25 mg kg^−1 systemically injected EB[40], a dos ... || Safe and robust T cell vaccines would hold great promise for combination cancer immunotherapy. Locally administered vaccines must provide efficient delivery to LNs for effective antitumor immunomodulation. Nanovaccines are a promising approach for efficient vaccine delivery to LNs, and quite a few have been developed preclinically, yet the clinical translation of these nanoformulas has been hindered by limitations in their safety, suitability for reproducible large-scale manufacturing, and in vivo integrity. We chose albumin, one of the most successful carriers of nanomedicines in the clinic, ...

[2] = PET quantification of vaccine delivery to draining LNs after s.c. injection; assay type: in vivo, FVB mice; details: 64Cu-labeled, s.c. at tail base
Method: AlbiVax was radiolabeled with ^64Cu for PET. To label ^64Cu via chelation, a NOTA-functionalized MEB (NMEB) was synthesized and conjugated with vaccines. […] The reaction was shaken for 0.5 h at 37 °C. Thereafter, the radiochemical purity was determined using iTLC plates (Fisher Scientific), developed in 0.1 M citric acid (pH 5).
Female FVB mice (6–8 weeks) were used in all PET imaging studies in naive mice. C57BL/6 mice (6–8 weeks) were used in PET imaging of tumor-bearing mice. Mice were anesthetized using isoflurane/O^2 (2% v v^−1) before injection. Anesthetized mice were injected s.c. at the base of tail with ^64Cu-labeled vaccines (4.44−5.55 MBq/120–150 μCi each mouse) in PBS (100 μL). At indicated time points post injection, mice were scanned on an Inveon DPET scanner (Siemens Medical Solutions, Malvern, PA). PET images were reconstructed without correction for attenuation or scattering using a three-dimensional ordered subsets expectation maximization algorithm. ASI Pro VM^TM software was used for image analysis. Regions of interest (ROI) were drawn on LNs to calculate the %ID/g.

[3] = Biodistribution in resected organs by γ counting; design: species or system FVB mice; details: mouse, in vivo, sc
Method: The above mice were killed at specified time points. Organs and blood were collected and wet weighed. The collected organs and blood, together with a series of standard solutions, were measured for ^64Cu radioactivity on a gamma counter (Wallac Wizard 1480, PerkinElmer). The radioactivity of organs and blood was converted to calculate the percentages of the injected dose (%ID) in organs of interest and the percentages of the injected dose per gram of tissue (%ID/g).

[4] = human, in vivo; cited from earlier work

Compound: Cc1cc(-c2ccc(/N=N/c3ccc4c(S(=O)(=O)O)cc(S(=O)(=O)O)c(N)c4c3O)c(C)c2)ccc1/N=N/c1ccc2c(S(=O)(=O)O)cc(S(=O)(=O)O)c(N)c2c1O [EB, Evans blue]
- systemically injected dose survived [1]: 25 mg/kg

Compound: CC(C)C[C@H](NC(=O)[C@H](Cc1c[nH]c2ccccc12)NC(=O)[C@@H](NC(=O)[C@H](Cc1ccccc1)NC(=O)[C@H](Cc1ccccc1)NC(=O)[C@H](CC(=O)O)NC(=O)[C@H](Cc1ccc(O)cc1)NC(=O)[C@@H](NC(=O)[C@H](CO)NC(=O)[C@@H](N)CS)C(C)C)C(C)C)C(=O)O [Trp2]
- LN delivery (in words) ([2]; PET): no detectable

Compound: CpG: CpG1826 (TCCATGACGTTCCTGACGTT), phosphorothioate oligodeoxynucleotide, TLR9 agonist
- injection dose (%ID) delivered to inguinal (IN) and axillary (AX) LNs ([2]; 4.4–5.5 Mbq, decay-corrected PET over 3 days, n = 4–8): < 0.3 %ID
- %ID/g in IN LNs on day 5 [3]: 2.5 ± 1.3 %ID/g
- percent injection dose per gram of tissue in IN LNs on day 3 [3]: 8.3 ± 4.7 %ID/g

Compound: albumin
- half-life [4]: over 20 days
